According to the NIST ThermoML archive (doi:10.1016/j.jct.2017.11.017):
± gives the expanded uncertainty stated by the source. Each block holds one molecule with its values, some of them ahead of it.

Test: activity coefficient (dimensionless); of the first substance listed, at infinite dilution; xn = mol fraction of the nth substance listed
Conditions: 101.33 kPa, Liquid, Chromatography, x1 = 0

SMILES: CCc1ccccc1 [ethylbenzene] + C[n+]1ccn(CCCO)c1.N#CN=C=[N-]
activity coefficient (318.15 K): 14.6 ± 1
activity coefficient (328.15 K): 14.9 ± 1
activity coefficient (338.15 K): 15.3 ± 1
activity coefficient (348.15 K): 15.5 ± 1.1
activity coefficient (358.15 K): 15.9 ± 1.1
activity coefficient (368.15 K): 16.1 ± 1.1

SMILES: CCCCCCC [heptane] + C[N+]1(CCCO)CCOCC1.N#C[N-]C#N
activity coefficient (298.15 K): 1540 ± 110
activity coefficient (308.15 K): 1290 ± 89

SMILES: CCCCCCC [heptane] + C[n+]1ccn(CCCO)c1.N#CN=C=[N-]
activity coefficient (298.15 K): 562 ± 39
activity coefficient (308.15 K): 504 ± 35
activity coefficient (318.15 K): 447 ± 31
activity coefficient (328.15 K): 402 ± 28
activity coefficient (338.15 K): 366 ± 25
activity coefficient (348.15 K): 334 ± 23
activity coefficient (358.15 K): 306 ± 21

activity coefficient (298.15 K): 123 ± 8
activity coefficient (308.15 K): 116 ± 8
activity coefficient (318.15 K): 109 ± 7
activity coefficient (328.15 K): 102 ± 7
activity coefficient (338.15 K): 97.5 ± 6.7
activity coefficient (348.15 K): 92.5 ± 6.3
activity coefficient (358.15 K): 89 ± 6.1
SMILES: C=CCCCC [hex-1-ene] + C[n+]1ccn(CCCO)c1.N#CN=C=[N-]

activity coefficient (298.15 K): 357 ± 25
activity coefficient (308.15 K): 319 ± 22
activity coefficient (318.15 K): 286 ± 20
activity coefficient (328.15 K): 257 ± 18
activity coefficient (338.15 K): 233 ± 16
SMILES: CCCCCC [hexane] + C[n+]1ccn(CCCO)c1.N#CN=C=[N-]

SMILES: CC(C)c1ccccc1 [isopropylbenzene] + C[N+]1(CCCO)CCOCC1.N#C[N-]C#N
activity coefficient (318.15 K): 52.5 ± 3.6
activity coefficient (328.15 K): 51.2 ± 3.5
activity coefficient (338.15 K): 50.3 ± 3.4
activity coefficient (348.15 K): 49.2 ± 3.4
activity coefficient (358.15 K): 48.4 ± 3.3
activity coefficient (368.15 K): 47.5 ± 3.3

SMILES: CC(C)c1ccccc1 [isopropylbenzene] + C[n+]1ccn(CCCO)c1.N#CN=C=[N-]
activity coefficient (318.15 K): 25.8 ± 1.8
activity coefficient (328.15 K): 26.2 ± 1.8
activity coefficient (338.15 K): 26.6 ± 1.8
activity coefficient (348.15 K): 26.8 ± 1.8
activity coefficient (358.15 K): 27.1 ± 1.9
activity coefficient (368.15 K): 27.4 ± 1.9

SMILES: CO [methanol] + C[N+]1(CCCO)CCOCC1.N#C[N-]C#N
activity coefficient (318.15 K): 0.753 ± 0.05
activity coefficient (328.15 K): 0.763 ± 0.05
activity coefficient (338.15 K): 0.771 ± 0.05
activity coefficient (348.15 K): 0.778 ± 0.051
activity coefficient (358.15 K): 0.788 ± 0.051
activity coefficient (368.15 K): 0.791 ± 0.051

SMILES: CO [methanol] + C[n+]1ccn(CCCO)c1.N#CN=C=[N-]
activity coefficient (318.15 K): 0.63 ± 0.04
activity coefficient (328.15 K): 0.64 ± 0.04
activity coefficient (338.15 K): 0.654 ± 0.045
activity coefficient (348.15 K): 0.66 ± 0.05
activity coefficient (358.15 K): 0.679 ± 0.046
activity coefficient (368.15 K): 0.69 ± 0.05

SMILES: CCCC(=O)OC [methyl butanoate] + C[N+]1(CCCO)CCOCC1.N#C[N-]C#N
activity coefficient (318.15 K): 15.8 ± 1.1
activity coefficient (328.15 K): 15.9 ± 1.1
activity coefficient (338.15 K): 16.1 ± 1.1
activity coefficient (348.15 K): 16.2 ± 1.1
activity coefficient (358.15 K): 16.3 ± 1.1
activity coefficient (368.15 K): 16.5 ± 1.1

SMILES: CCCC(=O)OC [methyl butanoate] + C[n+]1ccn(CCCO)c1.N#CN=C=[N-]
activity coefficient (318.15 K): 9.03 ± 0.62
activity coefficient (328.15 K): 9.36 ± 0.64
activity coefficient (338.15 K): 9.67 ± 0.66
activity coefficient (348.15 K): 9.96 ± 0.68
activity coefficient (358.15 K): 10.3 ± 0.7
activity coefficient (368.15 K): 10.6 ± 0.7

SMILES: COC(C)=O [methyl ethanoate] + C[N+]1(CCCO)CCOCC1.N#C[N-]C#N
activity coefficient (318.15 K): 4.31 ± 0.29
activity coefficient (328.15 K): 4.41 ± 0.3
activity coefficient (338.15 K): 4.54 ± 0.31
activity coefficient (348.15 K): 4.64 ± 0.32
activity coefficient (358.15 K): 4.77 ± 0.33
activity coefficient (368.15 K): 4.89 ± 0.33

SMILES: COC(C)=O [methyl ethanoate] + C[n+]1ccn(CCCO)c1.N#CN=C=[N-]
activity coefficient (318.15 K): 3.07 ± 0.21
activity coefficient (328.15 K): 3.21 ± 0.22
activity coefficient (338.15 K): 3.35 ± 0.23
activity coefficient (348.15 K): 3.5 ± 0.24
activity coefficient (358.15 K): 3.64 ± 0.25
activity coefficient (368.15 K): 3.8 ± 0.26

SMILES: CCC(=O)OC [methyl propanoate] + C[N+]1(CCCO)CCOCC1.N#C[N-]C#N
activity coefficient (318.15 K): 8.18 ± 0.56
activity coefficient (328.15 K): 8.35 ± 0.57
activity coefficient (338.15 K): 8.51 ± 0.58
activity coefficient (348.15 K): 8.7 ± 0.59
activity coefficient (358.15 K): 8.81 ± 0.6
activity coefficient (368.15 K): 9.01 ± 0.61

SMILES: CCC(=O)OC [methyl propanoate] + C[n+]1ccn(CCCO)c1.N#CN=C=[N-]
activity coefficient (318.15 K): 5.29 ± 0.36
activity coefficient (328.15 K): 5.48 ± 0.37
activity coefficient (338.15 K): 5.73 ± 0.39
activity coefficient (348.15 K): 5.92 ± 0.4
activity coefficient (358.15 K): 6.14 ± 0.42
activity coefficient (368.15 K): 6.34 ± 0.43
